Assay results from patent US11780842B2, “TYK2 pseudokinase ligands” (Ventyx Biosciences, Inc., priority 2019, dated 2023).
pIC50: −log10 of the molar value.

Tested on: IFN-a/Jak1Tyk2
Assay: Co-stimulation assay in lysed whole blood: IFNa (JAK1/TYK2) stimulated STAT1 phosphorylation
Type: cell-based
Details: lysed human whole blood, IFNa 100 ng/mL (co-stimulated with GM-CSF 10 ng/mL), pSTAT1 by flow cytometry
Procedure: Example 4: Co-Stimulation Assay in Lysed Whole Blood; JAK2: GM-CSF Stimulated STATS Phosphorylation and JAK1/TYK2 Stimulated STAT1 Phosphorylation Assay
Human Blood Lysis Using Abcam's RBC Lysis Buffer
Dilute RBC lysis buffer to 1× in distilled water. Add 2 mL blood to 38 mL of 1×RBC-lysis buffer. Incubate for 15 mins at RT, in dark. Spin at 300 g, 5 mins, to collect the pellet. Re-lyse if necessary. Re-suspend pellet in 5 mL of cRPMI.
Compound and Cytokine Treatment
Aliquot 80 μL of lysed human blood in to wells of 96 deep-well plate. Add 10 μl of (10× conc.) of different concentrations of compounds to all wells except controls (unstained and unstimulated) and mix it with the help of 100 uL multichannel. Add 10 uL of RPMI media in controls. For dilution of compounds and dilution range please refer Appendix. Incubate on water bath or CO2 incubator for 1 hour at 37° C. Add 10 μL of (10× conc.) of cytokine mix (GM-CSF and IFNa) (final conc. 10 ng/mL of GM-CSF and 100 ng/mL of IFNa) to each well except unstimulated and unstained controls and incubate further for 20 minutes on water bath at 37° C.
Add 900 μL of prewarmed 1× Fix/Lyse solution (Appendix) and mix it properly using 1000 μl multichannel, incubate further on water bath at 37° C. for 10 minutes (which includes time of addition). Centrifuge at 800× g for 5 minutes at 40° C.; remove 900 uL of supernatant and add 900 μL of 1×PBS. Centrifuge at 800× g for 5 minutes at 40° C., remove 900 μL of supernatant. Wash one more time with 900 μL of PBS (optional) and resuspend pellets in 100 uL of PBS.
Disrupt the pellet by gentle tapping and resuspend in 1000 μL of BD Phosflow Perm Buffer III and incubate plate on ice for 30 minutes. Centrifuge plate at 800× g for 5 minutes at 40° C. Wash two more times with 1000 μL of BD Pharmingen Stain Buffer.
Disrupt the pellet by gentle tapping. Resuspend pellets in 100 uL of Stain Buffer and add 5 μL of pSTAT5_AF488 Ab and 5 uL of pSTAT1_PE in all wells except unstained control and mix properly using 200 μl multichannel, incubate overnight at […]. Add 900 μL of wash buffer and centrifuge at 1800 rpm for 3 minutes at […]. Wash one more time with 1000 μL of BD Pharmingen Stain Buffer. Finally resuspend the pellet in 300 uL of BD Pharmingen Stain Buffer. Transfer the cells to 96-well v-bottom plate and acquire the cells in Beckman Coulter CytExpert. Acquiring cells in Flow Cytometer: Keep the threshold value to 250 and cell concentration should not exceed 100-500 cells/μL. Acquire at least 5,000-10,000 cells.
RPMI 1640 Complete Medium: RPMI 1640 media+10% FBS.
Cytokine dilution: 1) GM-CSF Stock at 100 ug/mL. Prepare an intermediate dilution of 1 ug/mL by adding 2 uL of stock into 198 uL of cRPMI. Further dilute to 100 ng/mL by adding 100 uL of the intermediate stock to 900 uL of cRPMI. 2) IFNa Stock at 200 ug/mL. Dilute IFNa stock 1:200 by adding 5 uL of stock into the 1000 uL of 100 ng/mL GM-CSF working stock as above to give a combined working stock of 1000 ng/mL of IFNa and 100 ng/mL GM-CSF (lox). Keep it on ice until used.
Lyse/Fix buffer preparation: Dilute 5× Lyse/Fix buffer to 1× using MQ water and keep at 37° C. until used.
BD Phosflow perm buffer III: Keep on ice/fridge.

CNc1cc2nc3c(cnn13)C(=O)NCCOc1cc(ccc1F)N2 [Compound 21, (1^3E,1^4E)-3^4-fluoro-1^7-(methylamino)-4-oxa-2,7-diaza-1(5,3)-pyrazolo[1,5-a]pyrimidina-3(1,3)-benzenacyclooctaphan-8-one] and CNc1cc2nc3c(cnn13)C(=O)NCCOc1cc(ccc1Cl)N2 [Compound 23, (1^3E,1^4E)-3^4-chloro-1^7-(methylamino)-4-oxa-2,7-diaza-1(5,3)-pyrazolo[1,5-a]pyrimidina-3(1,3)-benzenacyclooctaphan-8-one] fall in the same range of pIC50: 6.00 to 7.00 for the first, 6.00 to 7.00 for the second.

CNc1cc2nc3c(cnn13)C(=O)NCCCc1cc(O)cc(c1)N2 [Compound 38, (1^3E,1^4E)-3^5-hydroxy-1^7-(methylamino)-2,7-diaza-1(5,3)-pyrazolo[1,5-a]pyrimidina-3(1,3)-benzenacyclooctaphan-8-one] and CNc1cc2nc3c(cnn13)C(=O)NCCCc1cc(cc(OC)c1)N2 [Compound 40, (1^3E,1^4E)-3^5-methoxy-1^7-(methylamino)-2,7-diaza-1(5,3)-pyrazolo[1,5-a]pyrimidina-3(1,3)-benzenacyclooctaphan-8-one] fall in the same range of pIC50: 5.00 to 6.00 for the first, 5.00 to 6.00 for the second.

[2H]C([2H])([2H])Nc1cc2nc3c(cnn13)C(=O)NCCOc1cccc(c1)N2 [Compound 14, (1^3E,1^4E)-1^7-((methyl-d3)amino)-4-oxa-2,7-diaza-1(5,3)-pyrazolo[1,5-a]pyrimidina-3(1,3)-benzenacyclooctaphan-8-one] and [2H]C([2H])([2H])Nc1cc2nc3c(cnn13)C(=O)NCCCc1cccc(c1)N2 [Compound 24, (1^3E,1^4E)-1^7-((methyl-d3)amino)-2,7-diaza-1(5,3)-pyrazolo[1,5-a]pyrimidina-3(1,3)-benzenacyclooctaphan-8-one] cannot be ordered by pIC50: at least 6.30 for the first, 6.00 to 7.00 for the second.

CNc1cc2nc3c(cnn13)C(=O)NC(C)COc1cccc(c1)N2 (centres unmarked) [Compound 25, (1^3E,1^4E)-6-methyl-1^7-(methylamino)-4-oxa-2,7-diaza-1(5,3)-pyrazolo[1,5-a]pyrimidina-3(1,3)-benzenacyclooctaphan-8-one] and CNc1cc2nc3c(cnn13)C(=O)NC(C)COc1ccccc1N2 (centres unmarked) [Compound 36, (1^3E,1^4E)-6-methyl-1^7-(methylamino)-4-oxa-2,7-diaza-1(5,3)-pyrazolo[1,5-a]pyrimidina-3(1,2)-benzenacyclooctaphan-8-one] fall in the same range of pIC50: 6.00 to 7.00 for the first, 6.00 to 7.00 for the second.

CNc1cc2nc3c(cnn13)C(=O)NCCCCOc1cccc(c1)N2 [Compound 35, (1^3E,1^4E)-1^7-(methylamino)-4-oxa-2,9-diaza-1(5,3)-pyrazolo[1,5-a]pyrimidina-3(1,3)-benzenacyclodecaphan-10-one] and CNc1cc2nc3c(cnn13)C(=O)NCCCc1cccc(c1)N2 [Compound 18, (1^3E,1^4E)-1^7-(methylamino)-2,7-diaza-1(5,3)-pyrazolo[1,5-a]pyrimidina-3(1,3)-benzenacyclooctaphan-8-one] fall in the same range of pIC50: 6.00 to 7.00 for the first, 6.00 to 7.00 for the second.

CNc1cc2nn3c(cnc13)C(=O)NCCOc1cccc(c1)N2 [Compound 12, (E)-1^8-(methylamino)-4-oxa-2,7-diaza-1(6,3)-imidazo[1,2-b]pyridazina-3(1,3)-benzenacyclooctaphan-8-one] and CNc1cc2nc3c(cnn13)C(=O)NCCc1cccc(c1)N2 [Compound 16, (1^3E,1^4E)-1^7-(methylamino)-2,6-diaza-1(5,3)-pyrazolo[1,5-a]pyrimidina-3(1,3)-benzenacycloheptaphan-7-one] cannot be ordered by pIC50: 6.00 to 7.00 for the first, at least 6.30 for the second.

CNc1cc2nc3c(cnn13)C(=O)NCCCc1csc(n1)N2 [Compound 43, (1^2Z,3^3E,3^4E)-3^7-(methylamino)-2,5-diaza-1(2,4)-thiazola-3(5,3)-pyrazolo[1,5-a]pyrimidinacyclooctaphan-4-one] and CNc1cc2nc3c(cnn13)C(=O)NCCc1cccc(n1)N2 [Compound 42, (1^3E,1^4E)-1^7-(methylamino)-2,6-diaza-1(5,3)-pyrazolo[1,5-a]pyrimidina-3(2,6)-pyridinacycloheptaphan-7-one] fall in the same range of pIC50: 5.00 to 6.00 for the first, 5.00 to 6.00 for the second.

CNc1cc2nc3c(cnn13)C(=O)NCCn1cc(cn1)N2 [Compound 47, (1^3E,1^4E,3^4E)-1^7-(methylamino)-31H-2,6-diaza-1(5,3)-pyrazolo[1,5-a]pyrimidina-3(4,1)-pyrazolacycloheptaphan-7-one] and CNc1cc2nc3c(cnn13)C(=O)NCCOc1cncc(c1)N2 [Compound 41, (1^3E,1^4E)-1^7-(methylamino)-4-oxa-2,7-diaza-1(5,3)-pyrazolo[1,5-a]pyrimidina-3(3,5)-pyridinacyclooctaphan-8-one] fall in the same range of pIC50: 5.00 to 6.00 for the first, 5.00 to 6.00 for the second.

[2H]C1([2H])NC(=O)c2cnn3c(NC)cc(nc23)Nc2cccc(c2)OC1([2H])[2H] [Compound 15, (1^3E,1^4E)-1^7-(methylamino)-4-oxa-2,7-diaza-1(5,3)-pyrazolo[1,5-a]pyrimidina-3(1,3)-benzenacyclooctaphn-8-one-5,5,6,6-d4] and CNc1cc2nc3c(cnn13)C(=O)NCC(C)(C)c1cccc(c1)N2 [Compound 13, (1^3E,1^4E)-4,4-dimethyl-1^7-(methylamino)-2,6-diaza-1(5,3)-pyrazolo[1,5-a]pyrimidina-3(1,3)-benzenacycloheptaphan-7-one] cannot be ordered by pIC50: at least 6.30 for the first, at least 6.30 for the second.

CNc1cc2nc3c(cnn13)C(=O)NCCOc1cc(F)cc(c1)N2 [Compound 19, (1^3E,1^4E)-3^5-fluoro-1^7-(methylamino)-4-oxa-2,7-diaza-1(5,3)-pyrazolo[1,5-a]pyrimidina-3(1,3)-benzenacyclooctaphan-8-one] and CNc1cc2nc3c(cnn13)C(=O)NCCOc1cc(Cl)cc(c1)N2 [Compound 33, (1^3E,1^4E)-3^5-chloro-1^7-(methylamino)-4-oxa-2,7-diaza-1(5,3)-pyrazolo[1,5-a]pyrimidina-3(1,3)-benzenacyclooctaphan-8-one] fall in the same range of pIC50: 6.00 to 7.00 for the first, 6.00 to 7.00 for the second.

CNc1cc2nc3c(cnn13)C(=O)NCC(C)Oc1ccccc1N2 (centres unmarked) [Compound 30, (1^3E,1^4E)-5-methyl-1^7-(methylamino)-4-oxa-2,7-diaza-1(5,3)-pyrazolo[1,5-a]pyrimidina-3(1,2)-benzenacyclooctaphan-8-one] and CNc1cc2nc3c(cnn13)C(=O)NCCOc1ccccc1N2 [Compound 20, (1^3E,1^4E)-1^7-(methylamino)-4-oxa-2,7-diaza-1(5,3)-pyrazolo[1,5-a]pyrimidina-3(1,2)-benzenacyclooctaphan-8-one] fall in the same range of pIC50: 6.00 to 7.00 for the first, 6.00 to 7.00 for the second.

CNc1cc2nc3c(cnn13)C(=O)NCCOc1cc(c(Cl)cc1Cl)N2 [Compound 27, (1^3E,1^4E)-3^4,3^6-dichloro-1^7-(methylamino)-4-oxa-2,7-diaza-1(5,3)-pyrazolo[1,5-a]pyrimidina-3(1,3)-benzenacyclooctaphan-8-one] and CNc1cc2nc3c(cnn13)C(=O)NCCOc1ccc(F)c(c1)N2 [Compound 22, (1^3E,1^4E)-3^6-fluoro-1^7-(methylamino)-4-oxa-2,7-diaza-1(5,3)-pyrazolo[1,5-a]pyrimidina-3(1,3)-benzenacyclooctaphan-8-one] fall in the same range of pIC50: 6.00 to 7.00 for the first, 6.00 to 7.00 for the second.

CNc1cc2nc3c(cnn13)C(=O)NCCOc1cc(C)cc(c1)N2 [Compound 26, (1^3E,1^4E)-3^5-methyl-1^7-(methylamino)-4-oxa-2,7-diaza-1(5,3)-pyrazolo[1,5-a]pyrimidina-3(1,3)-benzenacyclooctaphan-8-one] and CNc1cc2nc3c(cnn13)C(=O)NCCOc1cc(ccc1OC)N2 [Compound 31, (1^3E,1^4E)-3^4-methoxy-1^7-(methylamino)-4-oxa-2,7-diaza-1(5,3)-pyrazolo[1,5-a]pyrimidina-3(1,3)-benzenacyclooctaphan-8-one] fall in the same range of pIC50: 6.00 to 7.00 for the first, 6.00 to 7.00 for the second.
